Laboratory results published in PubChem BioAssay AID248 (DTP/NCI, 2004).
Several values for one entry are separate records, joined by “and”; a condition that tells them apart may be missing. Identical values can stand only once. Toxic doses and inconclusive results are not listed. No stated cut-off is given here; in the data, active means T/C of 150% or more; inactive means T/C below 125%.

System: L1210 leukemia ip in BDF1 mice, survival T/C
Experiment: NCI In Vivo Anticancer Drug Screen. Data for tumor model L1210 Leukemia (intraperitoneal) in B6D2F1 (BDF1) mice
Details: endpoint: mean survival time, higher = longer survival
How it was run: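 Transplantable tumor model; survival measured in treated vs vehicle control mice. Value = treated/control.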

[1] = dose: 50.0 mg/kg/injection, schedule: Q01DX009 (ip), vehicle: Klucel (hydroxypropylcellulose) (HPC)
[2] = dose: 100.0 mg/kg/injection, schedule: Q01DX009 (ip), vehicle: Klucel (hydroxypropylcellulose) (HPC)
[3] = dose: 100.0 mg/kg/injection, schedule: Q04DX002 (ip), vehicle: Klucel (hydroxypropylcellulose) (HPC)
[4] = dose: 100.0 mg/kg/injection, schedule: Q04DX003 (ip), vehicle: saline with Tween-80
[5] = dose: 200.0 mg/kg/injection, schedule: Q04DX003 (ip), vehicle: saline with Tween-80
[6] = dose: 400.0 mg/kg/injection, schedule: Q04DX003 (ip), vehicle: saline with Tween-80
[7] = dose: 100.0 mg/kg/injection, schedule: Q01DX001 (ip), vehicle: saline
[8] = dose: 200.0 mg/kg/injection, schedule: Q01DX001 (ip), vehicle: saline
[9] = dose: 400.0 mg/kg/injection, schedule: Q01DX001 (ip), vehicle: saline
[10] = dose: 50.0 mg/kg/injection, schedule: Q01DX001 (ip), vehicle: saline
[11] = dose: 100.0 mg/kg/injection, schedule: Q04DX003 (ip), vehicle: Klucel (hydroxypropylcellulose) (HPC)
[12] = dose: 200.0 mg/kg/injection, schedule: Q04DX003 (ip), vehicle: Klucel (hydroxypropylcellulose) (HPC)
[13] = dose: 400.0 mg/kg/injection, schedule: Q04DX003 (ip), vehicle: Klucel (hydroxypropylcellulose) (HPC)
[14] = dose: 1.25 mg/kg/injection, schedule: Q01DX009 (ip), vehicle: Klucel (hydroxypropylcellulose) (HPC)
[15] = dose: 2.5 mg/kg/injection, schedule: Q01DX009 (ip), vehicle: Klucel (hydroxypropylcellulose) (HPC)
[16] = dose: 5.0 mg/kg/injection, schedule: Q04DX003 (ip), vehicle: Klucel (hydroxypropylcellulose) (HPC)
[17] = dose: 100.0 mg/kg/injection, schedule: Q04DX003 (ip), vehicle: saline

Measured: T/C

CCOC(=O)/C=C/c1cccc(O)c1
inactive: dose: 100.0 mg/kg/injection, schedule: Q01DX001 (ip), vehicle: gum acacia 106 % of control | dose: 200.0 mg/kg/injection, schedule: Q01DX001 (ip), vehicle: gum acacia 110 % of control | dose: 400.0 mg/kg/injection, schedule: Q01DX001 (ip), vehicle: gum acacia 97 % of control

COc1ccc(CCCNCCCCCCNCCCc2ccc(OC)cc2)cc1
inactive: dose: 25.0 mg/kg/injection, schedule: Q01DX009 (ip), vehicle: Klucel (hydroxypropylcellulose) (HPC) 104 % of control | [1] 93 % of control | dose: 50.0 mg/kg/injection, schedule: Q04DX002 (ip), vehicle: Klucel (hydroxypropylcellulose) (HPC) 96 % of control | [2] 86 % of control | [3] 96 % of control

CCCCCCCCCCCCCCCC(=O)Nc1ccc(C(=O)C[n+]2ccc3c(NC(=O)CCC(=O)OC)cccc3c2)cc1
inactive: dose: 75.0 mg/kg/injection, schedule: Q01DX001 (ip), vehicle: other 86 % of control | dose: 150.0 mg/kg/injection, schedule: Q01DX001 (ip), vehicle: other 95 % of control

COC(=O)CCC(=O)Nc1ccccc1
inactive: [4] 101 % of control | [5] 95 % of control | [6] 95 % of control

CNC1(Cc2ccc(F)cc2)CCC1
inactive: dose: 100.0 mg/kg/injection, schedule: Q01DX009 (ip), vehicle: saline 100 % of control

CSc1ccc(NC(=O)Nc2cc(Cl)c(Cl)cc2C)cc1
inactive: [1] 87 % of control | [2] 87 % of control | dose: 200.0 mg/kg/injection, schedule: Q01DX009 (ip), vehicle: Klucel (hydroxypropylcellulose) (HPC) 86 % of control and 92 % of control | dose: 400.0 mg/kg/injection, schedule: Q01DX009 (ip), vehicle: Klucel (hydroxypropylcellulose) (HPC) 86 % of control

CCCCCCCCOC(=O)c1[nH]cnc1/N=N/N(C)C1CCCCC1
inactive: dose: 100.0 mg/kg/injection, schedule: Q01DX001 (ip), vehicle: other 93 % of control | dose: 200.0 mg/kg/injection, schedule: Q01DX001 (ip), vehicle: other 96 % of control | dose: 400.0 mg/kg/injection, schedule: Q01DX001 (ip), vehicle: other 91 % of control

Nc1cc(Cl)c2ncn(C3OC(CO)C(O)C3O)c2n1 (centres undefined)
inactive: [7] 98 % of control | dose: 100.0 mg/kg/injection, schedule: Q01DX005 (ip), vehicle: saline 110 % of control | [8] 101 % of control | dose: 200.0 mg/kg/injection, schedule: Q01DX005 (ip), vehicle: saline 115 % of control | [9] 114 % of control

O=C(O)c1c(O)cc(O)cc1O
inactive: [4] 95 % of control | [5] 95 % of control

CCOC(=O)OC1CC/C(=N\NC(N)=S)C1 (centres undefined)
inactive: dose: 15.0 mg/kg/injection, schedule: Q01DX Z (ip), vehicle: methylcellulose (MC) 104 % of control | dose: 30.0 mg/kg/injection, schedule: Q01DX Z (ip), vehicle: methylcellulose (MC) 101 % of control | dose: 60.0 mg/kg/injection, schedule: Q01DX Z (ip), vehicle: methylcellulose (MC) 108 % of control | dose: 120.0 mg/kg/injection, schedule: Q01DX Z (ip), vehicle: methylcellulose (MC) 98 % of control

O=C(CCCC(=O)N/N=C/c1ccc(O)cc1O)N/N=C\c1ccc(O)cc1O
inactive: [10] 90 % of control | [7] 96 % of control | [8] 96 % of control | [9] 93 % of control

O=S(=O)(Cc1ccc(Cl)cc1Cl)Cc1ccc(Cl)cc1Cl
inactive: [11] 89 % of control | [12] 87 % of control | [13] 87 % of control

O=C(NCCCl)Nc1ccncc1
inactive: [14] 97 % of control | [15] 88 % of control | dose: 2.5 mg/kg/injection, schedule: Q04DX003 (ip), vehicle: Klucel (hydroxypropylcellulose) (HPC) 100 % of control | [16] 103 % of control

NC(=S)N/N=C/c1ccco1
inactive: dose: 25.0 mg/kg/injection, schedule: Q04DX003 (ip), vehicle: saline 105 % of control | dose: 50.0 mg/kg/injection, schedule: Q04DX003 (ip), vehicle: saline 109 % of control | [7] 101 % of control | [11] 93 % of control | [17] 94 % of control and 100 % of control | [8] 104 % of control | [12] 96 % of control | [13] 103 % of control

CCNC(=O)C1C2C=CC(CC2)C1C(=O)NCC (centres undefined)
inactive: [4] 87 % of control | [5] 96 % of control | [6] 96 % of control

N#C[C@@H]1C2C=CC(CC2)[C@H]1C#N
inactive: dose: 0.5 mg/kg/injection, schedule: Q03HX024 (ip), vehicle: gum acacia 106 % of control | dose: 0.7 mg/kg/injection, schedule: Q03HX024 (ip), vehicle: gum acacia 106 % of control | dose: 1.1 mg/kg/injection, schedule: Q03HX024 (ip), vehicle: gum acacia 106 % of control | dose: 1.6 mg/kg/injection, schedule: Q03HX024 (ip), vehicle: gum acacia 102 % of control | dose: 2.4 mg/kg/injection, schedule: Q01DX009 (ip), vehicle: gum acacia 104 % of control | dose: 2.4 mg/kg/injection, schedule: Q03HX024 (ip), vehicle: gum acacia 103 % of control | dose: 3.6 mg/kg/injection, schedule: Q01DX009 (ip), vehicle: gum acacia 102 % of control | dose: 5.0 mg/kg/injection, schedule: Q01DX001 (ip), vehicle: gum acacia 103 % of control | dose: 5.0 mg/kg/injection, schedule: Q04DX003 (ip), vehicle: gum acacia 97 % of control | dose: 7.0 mg/kg/injection, schedule: Q01DX001 (ip), vehicle: gum acacia 101 % of control | dose: 7.0 mg/kg/injection, schedule: Q04DX003 (ip), vehicle: gum acacia 97 % of control | dose: 11.0 mg/kg/injection, schedule: Q01DX001 (ip), vehicle: gum acacia 100 % of control | dose: 11.0 mg/kg/injection, schedule: Q04DX003 (ip), vehicle: gum acacia 92 % of control

CN1C(=O)c2c(ccc3c2OCO3)C2C(O)Cc3cc4c(cc3C21)OCO4 (centres undefined)
inactive: [7] 100 % of control | [8] 94 % of control | [9] 107 % of control

C/C=C/C(=O)OC(=O)/C=C/C
inactive: dose: 25.0 mg/kg/injection, schedule: Q04DX003 (ip), vehicle: saline with Tween-80 94 % of control | dose: 50.0 mg/kg/injection, schedule: Q04DX003 (ip), vehicle: saline with Tween-80 98 % of control | [4] 113 % of control | [17] 114 % of control

COc1cccc(NC(=S)NN(C)C)c1
inactive: [3] 94 % of control | dose: 200.0 mg/kg/injection, schedule: Q04DX002 (ip), vehicle: Klucel (hydroxypropylcellulose) (HPC) 122 % of control | dose: 400.0 mg/kg/injection, schedule: Q04DX002 (ip), vehicle: Klucel (hydroxypropylcellulose) (HPC) 112 % of control

C[CH2][Pb]([CH2]C)([CH2]C)[O]C(C)=O
inactive: dose: 0.62 mg/kg/injection, schedule: Q01DX009 (ip), vehicle: Klucel (hydroxypropylcellulose) (HPC) 96 % of control | [14] 102 % of control | [15] 93 % of control and 94 % of control | dose: 5.0 mg/kg/injection, schedule: Q01DX001 (ip), vehicle: carboxymethylcellulose (CMC) 100 % of control | [16] 90 % of control | dose: 10.0 mg/kg/injection, schedule: Q01DX001 (ip), vehicle: carboxymethylcellulose (CMC) 103 % of control | dose: 10.0 mg/kg/injection, schedule: Q04DX003 (ip), vehicle: Klucel (hydroxypropylcellulose) (HPC) 95 % of control

CC(=O)Nc1ccc(NS(=O)(=O)O)cc1
inactive: [10] 96 % of control | [7] 96 % of control | [8] 93 % of control | [9] 96 % of control

O=P(Nc1ccccc1)(Nc1ccccc1)Nc1ccccc1
inactive: dose: 50.0 mg/kg/injection, schedule: Q04DX002 (ip), vehicle: gum acacia 95 % of control | dose: 100.0 mg/kg/injection, schedule: Q01DX009 (ip), vehicle: gum acacia 100 % of control | dose: 100.0 mg/kg/injection, schedule: Q04DX002 (ip), vehicle: gum acacia 95 % of control | dose: 200.0 mg/kg/injection, schedule: Q01DX009 (ip), vehicle: gum acacia 97 % of control | dose: 200.0 mg/kg/injection, schedule: Q04DX002 (ip), vehicle: gum acacia 92 % of control | dose: 400.0 mg/kg/injection, schedule: Q01DX009 (ip), vehicle: gum acacia 89 % of control
